Earlier results in patent US20100209356A1, “CONTRAST AGENTS” (priority 2007, published 2010).

Settings: high risk patients; iodixanol compared with a low-osmolar, non-ionic contrast medium

**Q.** For CC(=O)N(CC(O)CN(C(C)=O)c1c(I)c(C(=O)NCC(O)CO)c(I)c(C(=O)NCC(O)CO)c1I)c1c(I)c(C(=O)NCC(O)CO)c(I)c(C(=O)NCC(O)CO)c1I (stereo not shown) [iodixanol], which “nephropathy induced by contrast medium” value is on record?
**A.** less likely to develop
